Source: patent US12178800B2, “Sulforaphane-melatonin-like compound” (priority 2018, dated 2024)

Columns and labels:
[1] = Topical carbopol gel formulation: permeability and skin irritation; settings: pH 6.8
Procedure: A formulation in accordance with embodiments of the present invention appropriate for topical administration was obtained by adding 200 mg of carbopol (Carbopol 934P; Lubrizol, USA) to 2.5 mL of distilled water and solubilizing 200 mg of 6OHM-6-HITC in 2 mL of ethanol. An appropriate amount of the ethanolic dispersion was transferred to the aqueous dispersion of carbopol. Methanol (1.25 mL) was mixed with 1 mL of ethanol and added to the 6OHM-6-HITC and carbopol mixture, which was gradually stirred, and carbopol was allowed to soak for 2 h. Triethanolamine (100 mg; Sigma-Aldrich, USA) was added to neutralize the carbopol solution and facilitate the formation of a gel, after which the pH was adjusted to 6.8. A vehicle cream was prepared using the same ingredients and identical methods as the cream, but 6OHM-6-HITC was omitted from the mixture. […] For topical treatment, 6OHM-6-HITC or the vehicle cream (concentration, 200 mg/cm^2) was spread on the irradiated skin of pigs twice daily for 35 days, and the first application was performed immediately after irradiation.

[2] = test system: 2-Thiobarbituric Acid Reactive Substances (TBARS); assay: TBARS levels in mouse tongues; type: in vivo, ICR mice; settings: 12 days after irradiation
Description: The scoring of oral mucositis was based on a modification of the method of Sonis et al. To assess the severity of oral mucositis, mice were anesthetized with isoflurane every day. The oral mucositis score was: 0=normal; 1=partial hyperemia, erythema and swelling; 2=overall hyperemia, erythema and swelling; 3=epidermolysis, hyperemia and erythema; 4=extensive epidermolysis and bleeding; 5=bleeding and abscesses. Myeloperoxidase (MPO) activity is a marker for neutrophils in inflamed tissue. MPO activity was measured in mouse tongues using a modification of the method of Chen et al. After mice had been killed by cervical dislocation 12 days after irradiation, tongue samples (n=10 per group) were removed and stored at −70° C. until required for assay. […] MPO activity was measured using a Microplate Reader (NJ-2300; Biotec, Tokyo, Japan) at 450 nm. MPO activity was calculated by measuring the slope of absorbance calibrated using MPO standards (Wako Biochemicals) and expressed as MPO/g tongue. […] TBARS levels were measured using the Microplate Reader (Biotec) at 540 nm. TBARS levels were calculated by measuring the slope of absorbance calibrated using TBARS standards and expressed as TBARS/g tongue. […] The number of TUNEL-positive cells on the tongue tips were counted and expressed as a percentage. […] Data were analyzed using one-way analysis of variance (ANOVA) followed by the Steel-Dwass test. […]

COc1cc2c(CCCCN=C=S)c[nH]c2cc1O [6OHM-6-HITC]
permeability of 6OHM-6-HITC from topical gel formulation [1]: highest permeability
skin irritation by topical gel formulation [1]: without causing skin irritation
TBARS levels vs. control group ([2]; 30 mg/kg i.p.): lower
TBARS levels vs. control group ([2]; 300 mg/kg i.p.): significant decrease
